Test results: US11453667B2, “Pyridone-pyrimidine derivative acting as KRASG12C mutein inhibitor” (MEDSHINE DISCOVERY INC., priority 2018, dated 2022)
Where two headings read alike, the source gives them in different places.

What was measured:
[1] = Rat pharmacokinetic evaluation experiment; format: in vivo; conditions: plasma, male SD rats; for AUC: read-out: AUC (exposure)
Source text: To determine the drug concentrations in plasma at different times after intravenous and intragastric administration of the test compounds to the rats by using the LC/MS/MS method and using male SD rats as the test animals; To study the pharmacokinetic behaviors of the test compounds in rats and to evaluate the pharmacokinetic characteristics thereof.
Experiment scheme: 10 healthy adult male SD rats were used as experimental animals and divided into 4 groups according to the principle of similar body weight, with 2 in each group of the group IV (two groups) and 3 in each group of the group PO (two groups). The animals were purchased from Beijing Vital River Laboratory Animal Technology Co., Ltd.
Group IV: an appropriate amount of samples were weighed; an appropriate amount of DMSO, PEG400 and water were added successively thereto according to the volume ratio of 10:60:30; and stirring was performed under sonication to reach a clear state of 1.5 mg/mL.
Group PO: an appropriate amount of samples were weighed; an appropriate amount of DMSO, PEG400 and water were added successively thereto according to the volume ratio of 10:60:30; and stirring was performed under sonication to reach a clear state of 1.0 mg/mL.
After fasting overnight, each rat in the group IV was administered intravenously with a volume of 2 mL/kg and a dose of 3 mg/kg; each rat in the group PO was administered intragastrically with a volume of 10 mL/kg and a dose of 10 mg/kg.
After each of the male SD rats in the group IV was administrated with the test compounds, 200 ul of blood samples were collected at 0.0833, 0.25, 0.5, 1, 2, 4, 6, 8 and 24 hours, and were placed in a commercial anticoagulation tube pre-loaded with EDTA-K2. After each rat in the group PO was administrated with the test compounds, 200 ul of blood samples were collected at 0.25, 0.5, 1, 2, 4, 6, 8 and 24 hours respectively, and were placed in a commercial anticoagulation tube pre-loaded with EDTA-K2. The test tube was centrifuged for 15 minutes to separate the plasma and stored at −60° C. 2 hours after administration, the animals can be fed. The content of the test compounds in plasma was determined by the LC/MS/MS method after intravenous and intragastric administration to the rats. The linear range of the method was from 2.00 to 6000 nM; plasma samples were analyzed after treatment of precipitating proteins by acetonitrile.
Note: Cl: clearance rate; Vd: volume of distribution; AUC: exposure; T1/2: half-life; Cmax: maximum compound concentration after oral administration; Tmax: time to reach Cmax; F: bioavailability.

[2] = tested on: MIA PaCa2 human pancreatic cancer cells with KRAS G12C mutation; test: Cell experiment: anti-proliferative activity, CellTiter-Glo, MIA PaCa2; format: cell-based; conditions: Homo sapiens, MIA PaCa-2, 120 h, 5 days culture
Experimental: This experiment is intended to verify that the compounds of the present invention have an inhibitory effect on the proliferation of NCI-H358 human non-small cell lung cancer cells with KRAS G12C mutation, MIA PaCa2 human pancreatic cancer cells with KRAS G12C mutation and wild-type A375 human malignant melanoma cells.
40 μl of phosphate buffer was added to the peripheral wells of three 384-well microplates respectively, and 40 μl of cell suspension to be tested was added to the other wells of each plate respectively (plate 1: NCI-H358 cell suspension containing 500 NCI-H358 cells; plate 2: MIAPaCa2 cell suspension containing 300 MIAPaCa2 cells; plate 3: A375 cell suspension containing 300 A375 cells). The three cell plates were then placed in a carbon dioxide incubator and incubated overnight. Echo was used to perform a 3-fold gradient dilution of the compounds to be tested, and each compound was diluted with 10 concentration gradients (diluted from 50 μM to 0.003 μM), 100 nl of which was respectively added to the corresponding wells of the cell plates; after dosing, 40 μL of phosphate buffer was added to each well of rows A and P and columns 1 and 24, and then the cell plates were put back to the carbon dioxide incubator for culturing for 5 days. 20 μl of Promega CellTiter-Glo reagent per well was added to the cell plates, which was shaken at room temperature for 10 minutes in the dark to stabilize the luminescence signal. A PerkinElmer Envision multi-label analyzer was used for reading.
Data analysis: IC50 results were analyzed by GraphPad Prism 5.0 software […].

[3] = tested on: human pancreatic cancer x-MIA-PaCa2 cell; test: In vivo drug efficacy test (3): subcutaneous xenograft tumor model; parameters: species or system NU/NU mice; conditions: 50 mg/kg
Experimental: To evaluate the in vivo efficacy of the test compounds in a subcutaneous xenograft tumor model of human pancreatic cancer x-MIA-PaCa2 cell.
NU/NU mice, female, 6-8 weeks old, weighing 17-20 grams. A total of 100 were required (additional 30% of animals were inoculated). They were provided by Beijing Vital River Science and Technology Co., Ltd. Each mouse was subcutaneously inoculated with 0.2 mL (10×10^6) of x-MIA-PaCa2 cells (plus matrigel, with the volume ratio being 1:1) on the right back. When the average tumor volume reached about 150 mm^3, grouping and administration were performed, and the administration dose was shown in Table 7. The diameter of the tumor was measured with vernier calipers twice a week. The formula for calculating the tumor volume is: V=0.5a×b^2, wherein a and b represent the long and short diameters of the tumor, respectively. The tumor suppressive effect of the compounds was evaluated by TGI (%). TGI (%) reflects the tumor growth inhibition rate. Calculation of TGI (%): TGI (%)=[(1−(average tumor volume at the end of administration in a treatment group−average tumor volume at the beginning of administration in the treatment group))/(average tumor volume at the end of treatment in the solvent control group−average tumor volume at the beginning of treatment in the solvent control group)]×100%.

C=CC(=O)N1CCN(c2ncnc3c(=O)n(-c4c(N)c(Cl)cc(Cl)c4F)c(C(F)(F)F)cc23)CC1 [Example 49]
AUC ([1]; IV 3 mg/kg): 4.62 µM·h
clearance ([1]; IV 3 mg/kg, read-out: Cl (clearance rate)): 20.6 mL/min/kg
half-life ([1]; IV 3 mg/kg, read-out: T1/2 (half-life) (converted)): 0.94 h
Vd ([1]; IV 3 mg/kg, read-out: Vd (volume of distribution)): 2.15 L/kg
Cmax ([1]; PO 10 mg/kg): 2110 nM
Tmax ([1]; PO 10 mg/kg): 1.67 h
AUC ([1]; PO 10 mg/kg): 7.74 µM·h
bioavailability ([1]; PO 10 mg/kg, read-out: F (bioavailability)): 52%
IC50 [2]: 0.07 µM
Tumor volume (day 14) [3]: 204 mm^3
TGI ([3]; day 14): 96.77%
